From patent US20040082623A1, “Fmoc-l-leucine and derivatives thereof as ppar-gamma agonists” (priority 2003, published 2004)

Key:
[1] = target: T1, hPPARγ LBD (Homo sapiens, UniProt P37231); experiment: ESI-mass spectrometry of ligand binding to PPARγ LBD
T1 construct: Human PPARγ (aa. 203 to 477 of PPARγ) was subcloned into the pET15b; His-tag (N); made in house
T1 sequence (P37231 203-477 isoform P37231-2): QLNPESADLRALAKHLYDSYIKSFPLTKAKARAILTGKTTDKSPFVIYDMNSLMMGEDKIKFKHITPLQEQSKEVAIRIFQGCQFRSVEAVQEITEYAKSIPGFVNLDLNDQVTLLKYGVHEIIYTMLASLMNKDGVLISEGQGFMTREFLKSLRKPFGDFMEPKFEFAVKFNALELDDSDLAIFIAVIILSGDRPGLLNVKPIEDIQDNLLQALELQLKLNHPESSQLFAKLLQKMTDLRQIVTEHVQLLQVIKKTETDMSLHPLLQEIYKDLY
Description: FIG. 5: Two molecules of F-L-Leu bind to a single PPARγ molecule. ESI-mass spectrometry analysis.
The p300Nt-GST, fusion protein was generated by cloning the N-terminal part of the p300 protein (a.a. 2 to 516) downstream of the glutathione-S-transferase (GST) protein in the pGex-T1 vector (Pharmacia, Orsay, France). The fusion proteins were then expressed in Escherichia coli and purified on a glutathione affinity matrix (Pharmacia). Human PPARγ (aa. 203 to 477 of PPARγ) was subcloned into the pET15b (Novagen, Madison, Wis.) expression vector. The his-tagPPARγ2DE203-477 proteins were produced as follow. The protein was purified using a metal chelate affinity column with an affinity column Co^2+ coupled agarose (High Trap chelatin, Pharmacia). The protein was eluted with 20 mM Tris-HCl, […], 130 mM imidazole and 1-2 propanediol 2.5% (pH 8.5). A second purification step was made by gel filtration (Superdex 200 16/60, Pharmacia). The protein was eluted with 20 mM Tris-HCl, 100 mM NaCl, 5 mM DTT and 1-2 propanediol 2,5% (pH 8.5). […]
Electrospray ionization (ESI) mass spectrometry of hPPARγ LBD (amino acid 203 t ? 477) was used to identify the specific binding of F-L-Leu with PPARγ (FIG. 5). […] The mass of the receptor wa ? determined after incubation by ESI-mass spectrometry.

[2] = target: T2, PPARγ2 (Homo sapiens, UniProt P37231); experiment: Transient transfection, PPARγ2 reporter in RK13 cells; type: cell-based; set-up: a construct containing the entire cDNA of the human PPARγ2 (hPPARγ2); expressed in transfected cells; host or cells: Hep G2, RK13 or CV1 cells
T2 sequence (P37231 1-505): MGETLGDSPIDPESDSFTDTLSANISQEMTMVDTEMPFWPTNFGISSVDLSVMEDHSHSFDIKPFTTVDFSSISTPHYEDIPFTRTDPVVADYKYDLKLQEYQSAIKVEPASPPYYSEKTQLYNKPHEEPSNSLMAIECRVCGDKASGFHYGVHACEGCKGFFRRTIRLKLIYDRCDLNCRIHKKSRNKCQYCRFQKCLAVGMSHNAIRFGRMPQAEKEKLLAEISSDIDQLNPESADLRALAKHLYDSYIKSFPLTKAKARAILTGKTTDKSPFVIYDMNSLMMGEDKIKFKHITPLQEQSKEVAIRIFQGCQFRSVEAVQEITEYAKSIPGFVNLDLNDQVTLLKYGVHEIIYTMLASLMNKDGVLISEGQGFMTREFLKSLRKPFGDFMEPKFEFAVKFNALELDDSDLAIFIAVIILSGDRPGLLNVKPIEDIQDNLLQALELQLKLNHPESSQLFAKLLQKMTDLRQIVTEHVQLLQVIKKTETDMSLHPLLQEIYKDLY
Experimental: (§1) RK13 cells (A and D), CV1 cells (B) or Hep G2 cells (C) were co-transfected with an expression vector for PPARγ2 (0.1 μg/well), pGL3-(Jwt)3TKLuc reported construct (0.5 μg/well), and pCMV-βGal (0.5 μg/well), as a control of transfection efficiency (0.5 μg/well). They were then grown during 24 h in the presence or absence of indicated compound. Activation is expressed as relative luciferase activity/β ? galactosidase activity. Each point was performed in triplicate, and each figure i ? representative of four independent experiments.
(§2) The CV1, RK-13, and Hep G2 cell lines were obtained from ATCC (Rockville, Md.). Cells were maintained in Dulbecco's modified Eagle's minimal essential medium (DMEM) supplemented with 10% fetal calf serum (FCS), L-glutamine, and antibiotics. Transfections with chloramphenicol acetyltransferase (CAT) or luciferase (luc.) reporter constructs were carried out exactly as described previously (Schoonjans et al., 1996). The pGL3-(Jwt)3TKLuc and the pGL3-(Jwt)3TKCAT reporter constructs contain both three tandem repeats of the J site of the apolipoprotein A-II promoter cloned upstream of the herpes simplex virus thymidine kinase (TK) promoter and the luciferase or the CAT reporter genes respectively (Vu-Dac et al., 1995). The following expression vectors were used; pSG5-hPPARγ2, a construct containing the entire cDNA of the human PPARγ2 (hPPARγ2) (Fajas et al., 1997); pSG5-mPPARα (Isseman et al., 1993); and pCMV-βGal, as a control of transfection efficiency.

[3] = target: T2, PPARγ2; experiment: Transient transfection, PPARγ2 reporter (luciferase/β-galactosidase) in Hep G2 cells; type: cell-based; set-up: a construct containing the entire cDNA of the human PPARγ2 (hPPARγ2); expressed in transfected cells; host or cells: Hep G2
Experimental: Hep G2 cells were co-transfected with an expression vector for PPARγ2 (0.1 μg/well), pGL3-(Jwt)3TKLuc reporter construct (0.5 μg/well), and pCMV-βGal (0.5 μg/well), as a control of transfection efficiency (0.5 μg/well). The were then grown during 24 h in the presence or absence of indicated compound Activation is expressed as relative luciferase activity/β-galactosidase activity. Each point was performed in triplicate. This figure is representative of three independent experiments.
as §1, §2

SMILES: CC(C)CC(NC(=O)OCC1c2ccccc2-c2ccccc21)C(=O)O [F-L-Leu, N-(9-fluroroenylmethyloxycarbonyl)-L-Leucine]
- PPARγ species detected ([1]; 1 equivalent of ligand per equivalent of PPARγ: unliganded, 1:1 and 1:2 complexes): three populations of PPARγ
- number of ligand molecules bound per PPARγ LBD ([1]; 8 equivalents of ligand per 1 equivalent of PPARγ, only complex detected): 2
- concentration giving maximal PPARγ activation ([2]; RK13 cells): 10^−5 M
- modification of PPARγ activity when added to a saturating concentration of rosiglitazone ([2]; RK13 cells, 10^−5 M added): No significant modification
- concentration of optimal PPARγ activity / activation ([2]; rabbit kidney RK13 cells): 10^−5 M
- optimal concentration for PPARγ activation compared with PG J2 ([3]; HepG2): similar
- optimal concentration relative to concentration of rosiglitazone or pioglitazone necessary to reach the same efficacy ([3]; HepG2, fold higher, pioglitazone data not shown): 100 fold
- PPARγ activation (relative luciferase activity/β-galactosidase activity) ([3]; HepG2 cells, pSG5-hPPARγ2, 24 h, F-L-leu at 10^−5 M): Significant PPARγ activity
- concentration required for optimal PPARγ activation ([3]; human HepG2 cells): 10^−5 M
- potency in transfection experiments relative to rosiglitazone ([3]; summary statement, cell line not named): two orders of magnitude less potent
